From ChEMBL document CHEMBL1125889, “8-(Dicyclopropylmethyl)-1,3-dipropylxanthine: a potent and selective adenosine A1 antagonist with renal protective and diuretic activities” (J Med Chem, 1991)

Experiments:
Rattus norvegicus [1] = species on record: Rattus norvegicus; settings: in vivo, po, 6 h
Description: Compound administered at a dose of 6.25 mg/25 mL/kg orally to rats, urine collected for 6 hr and measured for Na+ excretion.

Rattus norvegicus [2] = assay: Compound was evaluated for Serum creatinine concentration in glycerol injected rats treated with 1 mg/kg administered intraperitoneally; type: functional, organism-based; set-up: dose 1 mg/kg
Rattus norvegicus [3] = species on record: Rattus norvegicus; settings: in vivo, po, 6 h; remark: listed apart in the source
Description: Compound administered at a dose of 6.25 mg/25 mL/kg orally to rats, urine collected for 6 hr and measured for urine volume.

Rattus norvegicus [4] = species on record: Rattus norvegicus; settings: in vivo, po, 6 h; remark: listed apart in the source
Description: Compound administered at a dose of 6.25 mg/25 mL/kg orally to rats, urine collected for 6 hr and measured for K+ excretion.

Adenosine receptor A1 [5] = target: T1, Adenosine receptor A1 (Cavia porcellus, UniProt P47745); assay: Binding affinity carried out with [3H]cyclohexyladenosine in guinea pig forebrain membranes against adenosine A1 receptor; type: cell membranes, Brain membranes
T1 sequence (P47745 whole entry): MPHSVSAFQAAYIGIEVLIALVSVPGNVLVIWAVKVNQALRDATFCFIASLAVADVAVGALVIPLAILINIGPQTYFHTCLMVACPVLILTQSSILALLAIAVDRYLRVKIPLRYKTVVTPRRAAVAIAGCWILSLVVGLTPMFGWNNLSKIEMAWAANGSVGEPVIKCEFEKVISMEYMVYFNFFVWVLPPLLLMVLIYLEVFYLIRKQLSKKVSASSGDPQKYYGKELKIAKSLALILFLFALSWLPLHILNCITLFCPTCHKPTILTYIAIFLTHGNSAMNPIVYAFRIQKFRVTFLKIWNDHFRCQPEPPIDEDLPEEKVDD

Cavia porcellus = species on record: Cavia porcellus; assay: Ki ratio evaluated as the Ki of A2 to that A1 receptor values.
Adenosine A2 receptor [6] = target: T2, Adenosine A2 receptor (Rattus norvegicus, UniProt P29276+P30543); type: cell membranes, Membrane
Rattus norvegicus [7] = assay: Compound was evaluated for Serum creatinine concentration in glycerol injected rats treated with 10 mg/kg administered intraperitoneally.; type: functional, organism-based; set-up: dose 10 mg/kg
Adenosine A2 receptor [8] = target: T2, Adenosine A2 receptor; type: cell membranes, Membrane; remark: listed apart in the source
Adenosine receptor A1 [9] = target: T1, Adenosine receptor A1
Description: Inhibition of [3H]cyclohexyladenosine binding to guinea pig forebrain membranes Adenosine A1 receptor

Row | SMILES | Ki (Adenosine receptor A1 [5]) [nM] | Ki ratio (Cavia porcellus) | Ki (Adenosine A2 receptor [6]) [nM] | other results
1 | CCCn1c(=O)c2[nH]c(C3CCCC3)nc2n(CCC)c1=O [1,3-DIPROPYL-8-CYCLOPENTYLXANTHINE [DPCPX]] |  |  |  | Na+ excretion (Rattus norvegicus [1]): 1.98 ml 6hr-1 100g-1; Serum creatinine conc (Rattus norvegicus [2]): 3.75 mg/dL; Urine volume (Rattus norvegicus [3]): 1.87 ml 6hr-1 100g-1; K+ excretion (Rattus norvegicus [4]): 1.26 ml 6hr-1 100g-1
2 | CCCn1c(=O)c2c(nc(C(C3CC3)C3CC3)n2CCC)n(CCC)c1=O | 13000 | 0.48 |  | 
3 | CCn1c(=O)c2[nH]c(C(C3CC3)C3CC3)nc2n(CC)c1=O | 13 |  |  | 
4 | Cn1c(=O)c2[nH]cnc2n(C)c1=O.O [THEOPHYLLINE] |  |  |  | Na+ excretion (Rattus norvegicus [1]): 1.52 ml 6hr-1 100g-1; Serum creatinine conc (Rattus norvegicus [7]): 5.32 mg/dL; Urine volume (Rattus norvegicus [3]): 1.42 ml 6hr-1 100g-1; K+ excretion (Rattus norvegicus [4]): 1.16 ml 6hr-1 100g-1
5 | CCCn1c(=O)c2c(nc(C(C3CC3)C3CC3)n2C)n(CCC)c1=O | 7400 | 3.9 |  | 
6 | CCn1c(=O)c2nc(C(C3CC3)C3CC3)[nH]c2n(CC)c1=O |  | 53 |  | 
7 | CCCn1c(=O)c2nc(C(C3CC3)C3CC3)[nH]c2n(CCC)c1=O |  | 140 |  | Serum creatinine conc (Rattus norvegicus [2]): 2.99 mg/dL
8 | CCCn1c(=O)c2[nH]c(C(C)Cc3ccc(OC)cc3)nc2n(CCC)c1=O (centres undefined) | 220 |  |  | 
9 | CCCn1c(=O)c2c(nc(C(C3CC3)C3CC3)n2CC)n(CCC)c1=O | 1600 | 8.8 |  | 
10 | CCCn1c(=O)[nH]c(=O)c2[nH]c(C(C3CC3)C3CC3)nc21 | 1300 | > 77 | > 100000 | 
11 | CCCn1c(=O)c2[nH]c(C(C)Cc3ccccc3)nc2n(CCC)c1=O (centres undefined) | 260 |  |  | 
12 | CC(C)Cn1c(=O)n(C)c(=O)c2[nH]c(C(C3CC3)C3CC3)nc21 | 12 | 34 |  | 
13 | NS(=O)(=O)c1cc(C(=O)O)c(NCc2ccco2)cc1Cl |  |  |  | Serum creatinine conc (Rattus norvegicus [7]): 4.17 mg/dL
14 | CCCn1c(=O)c2[nH]c(C(c3ccc(F)cc3)C3CC3)nc2n(CCC)c1=O (centres undefined) | 250 |  |  | 
15 | CCCn1c(=O)c2[nH]c(C(c3ccccc3)C3CCCC3)nc2n(CCC)c1=O (centres undefined) | 400 |  |  | 
16 | Cn1c(=O)c2c(ncn2C)n(C)c1=O [CAFFEINE] |  |  |  | K+ excretion (Rattus norvegicus [1]): 1.1 ml 6hr-1 100g-1; Ki (Adenosine receptor A1 [9]): > 100000 nM; Urine volume (Rattus norvegicus [3]): 0.92 ml 6hr-1 100g-1; K+ excretion (Rattus norvegicus [4]): 0.99 ml 6hr-1 100g-1
17 | CCCn1c(=O)c2nc[nH]c2n(CCC)c1=O |  |  |  | Ki (Adenosine receptor A1 [9]): 1200 nM
18 | CCCn1c(=O)c2[nH]c(C(c3ccccc3)c3ccccc3)nc2n(CCC)c1=O | 2100 |  |  | 
19 | Cn1c(=O)c2nc(C(C3CC3)C3CC3)[nH]c2n(C)c1=O | 81 | 33 |  | 

The next lines start with results.

Row | Ki (Adenosine receptor A1 [5]) [nM] | Ki ratio (Cavia porcellus) | Ki (Adenosine A2 receptor [6]) [nM] | SMILES | other results
20 |  | 48 | 1200 | CCCn1c(=O)c2nc(C(C)CC)[nH]c2n(CCC)c1=O (centres undefined) | 
21 | 150 | 12 | 1800 | CCCn1c(=O)c2nc(C(c3ccccc3)C3CC3)[nH]c2n(CCC)c1=O (centres undefined) | 
22 | 250 | 8.8 |  | CCCn1c(=O)c2nc(C(c3ccc(OC)cc3)C3CC3)[nH]c2n(CCC)c1=O (centres undefined) | Ki (Adenosine A2 receptor [8]): 2200 nM
23 |  | 1.8 | 480 | CCCn1c(=O)c2nc(C(C)Cc3ccccc3)[nH]c2n(CCC)c1=O (centres undefined) | 
24 | 78 |  |  | CCCC(CCC)c1nc2c([nH]1)c(=O)n(CCC)c(=O)n2CCC | 
25 | 9.7 |  |  | CCCn1c(=O)c2[nH]c(C(C3CC3C)C3CC3C)nc2n(CCC)c1=O (centres undefined) | 
26 | 5.5 | 80 |  | CCCCn1c(=O)c2nc(C(C3CC3)C3CC3)[nH]c2n(CCCC)c1=O | 
27 |  | 2.6 | 580 | CCCn1c(=O)c2nc(C(C)Cc3ccc(OC)cc3)[nH]c2n(CCC)c1=O (centres undefined) | 
28 |  | 100 | 1000 | CCCn1c(=O)c2nc(C(C3CC3C)C3CC3C)[nH]c2n(CCC)c1=O (centres undefined) | 
29 | 100 | 11 | 1100 | CCCn1c(=O)c2nc(C(CC)c3ccccc3)[nH]c2n(CCC)c1=O (centres undefined) | 
30 |  | 7.6 | 590 | CCCC(CCC)c1nc2c(=O)n(CCC)c(=O)n(CCC)c2[nH]1 | 
31 |  | 30 | 570 | CCCn1c(=O)c2nc(C(CC)CC)[nH]c2n(CCC)c1=O | 
32 | 3000 | > 33 | > 100000 | CCCn1c(=O)c2nc(C(C)N)[nH]c2n(CCC)c1=O (centres undefined) | 
33 | 25 |  |  | CCCn1c(=O)c2[nH]c(C(C)CC)nc2n(CCC)c1=O (centres undefined) | 
34 | > 100000 |  | > 100000 | CCCn1c(=O)c2nc(C(C3CCCCC3)C3CCCCC3)[nH]c2n(CCC)c1=O | 
35 | 900 | 3.7 | 3300 | CCCn1c(=O)c2nc(C(CC)Oc3ccccc3)[nH]c2n(CCC)c1=O (centres undefined) | 
36 | 49 | 31 | 1500 | CCCn1c(=O)c2nc(C(C)C)[nH]c2n(CCC)c1=O | 
37 |  | 5.6 | 1400 | CCCn1c(=O)c2nc(C(c3ccc(F)cc3)C3CC3)[nH]c2n(CCC)c1=O (centres undefined) | 
38 |  | 10 | 4000 | CCCn1c(=O)c2nc(C(c3ccccc3)C3CCCC3)[nH]c2n(CCC)c1=O (centres undefined) | 
39 |  | > 48 |  | CCCn1c(=O)c2nc(C(c3ccccc3)c3ccccc3)[nH]c2n(CCC)c1=O | Ki (Adenosine A2 receptor [8]): > 100000 nM
